# Source: PMC2774768 (Journal of the American Chemical Society, 2009)
# System: HeLa cells
# Assay: Confocal microscopy of peptide uptake and localization
# Format: cell-based
# Details: 1.0 μM peptide, 1 h, serum-free DMEM with 25 mM HEPES pH 7.3, fixed
row,"Uptake of peptide at 4 °C, fixed cells (confocal)",Substance
1,still able to enter the cells,AcK(5-Fam)AKKSRRC(Ger)VLL [compound 4]
2,substantial uptake of the peptide,AcK(5-Fam)C(Acm)KKSRRC(Ger)-NH2 [2a]
